# Test results from patent US7253158B2, “Sulfonamides” (Hoffmann-La Roche Inc., priority 2004, dated 2007).
# Target: T1, γ-secretase (Homo sapiens, UniProt P49768)
# T1 construct: uses a HEK293 membrane fraction as a source of γ-secretase; endogenous in cells; host or cells: HEK293 (microsomal membrane fraction, solubilised in 0.25% CHAPSO)
# Assay: in vitro γ-secretase assay (HEK293 membrane fraction, recombinant APP substrate, Abeta ELISA)
# Format: biochemical
# Settings: γ-secretase inhibition
# Text: Description of γ-Secretase Assay
# The activity of test compounds can be evaluated in assays which measure the proteolytic cleavage of suitable substrates by γ-secretase activity. These can be cellular assays where e.g., a substrate of the γ-secretase is fused in its cytoplasmic domain to a transcription factor. Cells are transfected with this fusion gene and a reporter gene, e.g., firefly luciferase, which expression is enhanced by the transcription factor. Cleavage of the fused substrate by γ-secretase will lead to expression of the reporter gene which can be monitored in appropriate assays. The γ-secretase activity can also be determined in cell-free in vitro asays where e.g., a cell lysate containing the γ-secretase complex is incubated with a suitable APP-derived substrate which is cleaved to the Abeta peptides. The amount of produced peptides can be determined with specific ELISA assays. Cell lines of neuronal origin secrete Abeta peptides which can be measured with the specific ELISA assay. Treatment with compounds which inhibit γ-secretase leads to a reduction of secreted Abeta thus providing a measure of inhibition.
# The in vitro assay of γ-secretase activity uses a HEK293 membrane fraction as a source of γ-secretase and a recombinant APP substrate. Latter consist of the C-terminal 100 amino acids of human APP fused to a 6× Histidin tail for purification which is expressed in E. coli in a regulatable expression vector, e.g. pEt15. This recombinant protein corresponds to the truncated APP fragment which results after […] of the extracellular domain and which constitutes the γ-secretase substrate. […] Hek293 cells are mechanically disrupted and the microsomal fraction is isolated by differential centrifugation.
row,SMILES,IC50 [nM]
1,"O=C1NCCCC[C@H]1N(Cc1ccc(-c2ccno2)cc1)S(=O)(=O)c1ccc(Cl)cc1 [Example 208, 4-Chloro-N-(4-isoxazol-5-yl-benzyl)-N-((R)-2-oxo-azepan-3-yl)-benzenesulfonamide]",220
2,"COc1ccc(CN(C2CC(C(F)(F)F)CCNC2=O)S(=O)(=O)c2ccc(Cl)cc2)c(F)c1 (stereo not drawn) [Example 198, 4-Chloro-N-(2-fluoro-4-methoxy-benzyl)-N-(2-oxo-5-trifluoromethyl-azepan-3-yl)-benzenesulfonamide]",290

# Results, then the compound that gave them:
row,IC50 [nM],SMILES
1,50,"COc1ccc(CN([C@@H]2CCCCNC2=O)S(=O)(=O)c2ccc(Cl)cc2)c(F)c1F [Example 211, 4-Chloro-N-(2,3-difluoro-4-methoxy-benzyl)-N-((R)-2-oxo-azepan-3-yl)-benzenesulfonamide]"
2,20,"O=C(O)CCc1ccc(CN([C@@H]2CCCCNC2=O)S(=O)(=O)c2ccc(Cl)cc2)cc1 [Example 201, 3-(4-{[(4-Chloro-benzenesulfonyl)-((R)-2-oxo-azepan-3-yl)-amino]-methyl}-phenyl)-propionic acid]"

# Same assay, conditions: γ-secretase inhibition, table head prints none
row,SMILES,IC50 [nM]
1,"COC(=O)c1ccc(CN([C@@H]2CCCCNC2=O)S(=O)(=O)c2ccc(Cl)cc2)c(F)c1 [Example 34, 4-{[(4-Chloro-benzenesulfonyl)-((R)-2-oxo-azepan-3-yl)-amino]-methyl}-3-fluoro-benzoic acid methyl ester]",140
2,"COC(=O)c1ccc(CN(C2CCCCNC2=O)S(=O)(=O)c2ccc(Cl)cc2)cc1 (racemic) [Example 57, rac-4-{[(4-Chloro-benzenesulfonyl)-(2-oxo-azepan-3-yl)-amino]-methyl}-benzoic acid methyl ester]",130
3,"CC1(C)CCNC(=O)[C@H](N(Cc2ccc(C(=O)O)cc2F)S(=O)(=O)c2ccc(Cl)cc2)C1 [Example 188, 4-{[(4-Chloro-benzenesulfonyl)-((R)-5,5-dimethyl-2-oxo-azepan-3-yl)-amino]-methyl}-3-fluoro-benzoic acid]",30
4,"COc1ccc(CN(C2CC(C(C)C)CCNC2=O)S(=O)(=O)c2ccc(Cl)cc2)cc1 (stereo not drawn) [Example 111, 4-Chloro-N-(5-isopropyl-2-oxo-azepan-3-yl)-N-(4-methoxy-benzyl)-benzenesulfonamide]",8
5,"COc1ccc(CN(C2CCCCNC2=O)S(=O)(=O)c2ccc(Br)cc2)cc1F (racemic) [Example 28, rac-4-Bromo-N-(3-fluoro-4-methoxy-benzyl)-N-(2-oxo-azepan-3-yl)-benzenesulfonamide]",150
6,"CC(=O)Nc1ccc(CN(C2CC(C)(C)CCNC2=O)S(=O)(=O)c2ccc(Cl)cc2)cc1 (racemic) [Example 152, rac-N-(4-{[(4-Chloro-benzenesulfonyl)-(5,5-dimethyl-2-oxo-azepan-3-yl)-amino]-methyl}-phenyl)-acetamide]",20
7,"CC(C)C1CCNC(=O)C(N(Cc2ccc(C(=O)NC3CC3)cc2)S(=O)(=O)c2ccc(Cl)cc2)C1 (racemic) [Example 43, rac-4-{[(4-Chloro-benzenesulfonyl)-(5-isopropyl-2-oxo-azepan-3-yl)-amino]-methyl}-N-cyclopropyl-benzamide]",30
8,"CC1(C)CCNC(=O)C(N(Cc2ccc(C(=O)NCCO)cc2)S(=O)(=O)c2ccc(Cl)cc2)C1 (racemic) [Example 143, rac-4-{[(4-Chloro-benzenesulfonyl)-(5,5-dimethyl-2-oxo-azepan-3-yl)-amino]-methyl}-N-(2-hydroxy-ethyl)-benzamide]",40
9,"O=C(NC1CC1)c1ccc(CN(C2CC(C(F)(F)F)CCNC2=O)S(=O)(=O)c2ccc(Cl)cc2)cc1 (stereo not drawn) [Example 115, 4-{[(4-Chloro-benzenesulfonyl)-(2-oxo-5-trifluoromethyl-azepan-3-yl)-amino]-methyl}-N-cyclopropyl-benzamide]",30
10,"CC1(C)CCNC(=O)[C@H](N(Cc2ccc(CCC(=O)O)cc2)S(=O)(=O)c2ccc(Cl)cc2)C1 [Example 187, 3-(4-{[(4-Chloro-benzenesulfonyl)-((R)-5,5-dimethyl-2-oxo-azepan-3-yl)-amino]-methyl}-phenyl)-propionic acid]",10
11,"CC1(C)CCNC(=O)C(N(Cc2ccc(C(=O)NC3CCCC3)cc2)S(=O)(=O)c2ccc(Cl)cc2)C1 (racemic) [Example 144, rac-4-{[(4-Chloro-benzenesulfonyl)-(5,5-dimethyl-2-oxo-azepan-3-yl)-amino]-methyl}-N-cyclopentyl-benzamide]",50
12,"CCOC(=O)c1ccc(CN([C@@H]2CCCCNC2=O)S(=O)(=O)c2ccc(Cl)cc2)cc1 [Example 35, 4-{[(4-Chloro-benzenesulfonyl)-((R)-2-oxo-azepan-3-yl)-amino]-methyl}-benzoic acid ethyl ester]",90
13,"CC1(C)CCNC(=O)[C@H](N(Cc2ccc(C(=O)NC3CC3)cc2)S(=O)(=O)c2ccc(Cl)cc2)C1 [Example 183, 4-{[(4-Chloro-benzenesulfonyl)-((R)-5,5-dimethyl-2-oxo-azepan-3-yl)-amino]-methyl}-N-cyclopropyl-benzamide]",10
14,"CNC(=O)c1ccc(CN(C2CC(C)(C)CCNC2=O)S(=O)(=O)c2ccc(Cl)cc2)cc1 (racemic) [Example 145, rac-4-{[(4-Chloro-benzenesulfonyl)-(5,5-dimethyl-2-oxo-azepan-3-yl)-amino]-methyl}-N-methyl-benzamide]",10
15,"Cc1noc(-c2ccc(CN(C3CC(C(C)C)CCNC3=O)S(=O)(=O)c3ccc(Cl)cc3)cc2)n1 (stereo not drawn) [Example 181, 4-Chloro-N-(5-isopropyl-2-oxo-azepan-3-yl)-N-[4-(3-methyl-[1,2,4]oxadiazol-5-yl)-benzyl]-benzenesulfonamide]",270
16,"CC1(C)CCNC(=O)C(N(Cc2ccc(C(=O)NCC(F)(F)F)cc2)S(=O)(=O)c2ccc(Cl)cc2)C1 (racemic) [Example 141, rac-4-{[(4-Chloro-benzenesulfonyl)-(5,5-dimethyl-2-oxo-azepan-3-yl)-amino]-methyl}-N-(2,2,2-trifluoro-ethyl)-benzamide]",20
17,"COC(=O)c1ccc(CN([C@@H]2CC(C)(C)CCNC2=O)S(=O)(=O)c2ccc(Cl)cc2)c(F)c1 [Example 185, 4-{[(4-Chloro-benzenesulfonyl)-((R)-5,5-dimethyl-2-oxo-azepan-3-yl)-amino]-methyl}-3-fluoro-benzoic acid methyl ester]",10
18,"CCOC(=O)CC(=O)Nc1ccc(CN(C2CCCCNC2=O)S(=O)(=O)c2ccc(Cl)cc2)cc1 (racemic) [Example 165, Rac-N-(4-{[(4-Chloro-benzenesulfonyl)-(2-oxo-azepan-3-yl)-amino]-methyl}-phenyl)-malonamic acid ethyl ester]",270

# The next lines start with the values.
row,IC50 [nM],SMILES
1,130,"COC(=O)CCc1ccc(CN([C@@H]2CC(C)(C)CCNC2=O)S(=O)(=O)c2ccc(Cl)cc2)cc1 [Example 186, 3-(4-{[(4-Chloro-benzenesulfonyl)-((R)-5,5-dimethyl-2-oxo-azepan-3-yl)-amino]-methyl}-phenyl)-propionic acid methyl ester]"
2,20,"CC1(C)CCNC(=O)C(N(Cc2ccc(C(N)=O)cc2)S(=O)(=O)c2ccc(Cl)cc2)C1 (racemic) [Example 146, rac-4-{[(4-Chloro-benzenesulfonyl)-(5,5-dimethyl-2-oxo-azepan-3-yl)-amino]-methyl}-benzamide]"
3,20,"CC1(C)CCNC(=O)C(N(Cc2ccc(C(=O)N[C@@H]3C[C@@H]3F)cc2)S(=O)(=O)c2ccc(Cl)cc2)C1 (mixture of isomers) [Example 142, rac-4-{[(4-Chloro-benzenesulfonyl)-(5,5-dimethyl-2-oxo-azepan-3-yl)-amino]-methyl}-N-((1R,2S)-2-fluoro-cyclopropyl)-benzamide]"
4,120,"COc1ccc(CN([C@@H]2CCCCNC2=O)S(=O)(=O)c2ccc(Cl)cc2)c(F)c1 [Example 68, 4-Chloro-N-(2-fluoro-4-methoxy-benzyl)-N-((R)-2-oxo-azepan-3-yl)-benzenesulfonamide]"
5,150,"CC1(C)CCNC(=O)C(N(Cc2ccc(C(=O)NCCN3CCOCC3)cc2)S(=O)(=O)c2ccc(Cl)cc2)C1 (racemic) [Example 149, rac-4-{[(4-Chloro-benzenesulfonyl)-(5,5-dimethyl-2-oxo-azepan-3-yl)-amino]-methyl}-N-(2-morpholin-4-yl-ethyl)-benzamide]"
6,20,"CC1(C)CCNC(=O)C(N(Cc2ccc(C(=O)NCCF)cc2)S(=O)(=O)c2ccc(Cl)cc2)C1 (racemic) [Example 140, rac-4-{[(4-Chloro-benzenesulfonyl)-(5,5-dimethyl-2-oxo-azepan-3-yl)-amino]-methyl}-N-(2-fluoro-ethyl)-benzamide]"
7,20,"COC(=O)c1ccc(CN(C2CC(C(F)(F)F)CCNC2=O)S(=O)(=O)c2ccc(Cl)cc2)c(F)c1 (stereo not drawn) [Example 197, 4-{[(4-Chloro-benzenesulfonyl)-(2-oxo-5-trifluoromethyl-azepan-3-yl)-amino]-methyl}-3-fluoro-benzoic acid methyl ester]"
8,40,"COc1ccc(CN([C@@H]2CC(C)(C)CCNC2=O)S(=O)(=O)c2ccc(Cl)cc2)c(F)c1 [Example 192, 4-Chloro-N-((R)-5,5-dimethyl-2-oxo-azepan-3-yl)-N-(2-fluoro-4-methoxy-benzyl)-benzenesulfonamide]"
